According to patent US20240116985A1, “STAPLED PEPTIDES AND METHODS THEREOF” (priority 2020, published 2024):
In brackets after ≈: the same amount, converted by molar mass. Like-named read-outs stand apart in the source and are kept apart here.

Assays:
Solubility in PBS = assay type: physicochemical
In short: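 Read-out is the HPLC peak area of the supernatant from ultracentrifuged PBS solution, scaled against a 50 μM peptide DMSO injection; value reported as [(PBS area)/(DMSO area)]*50 uM.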

CHI Log D procedure = assay type: physicochemical; conditions: for CHI Log D: pH 7.4; for chromatographic logD: pH 7.4, CHI Log D
[1] = molecular target: T1, full-length beta-Catenin (Uniprot ID P35222) (Homo sapiens, UniProt P35222); assay: Fluorescence polarization IC50 (beta-catenin / 5FAM-TCF4 10-53 competition); assay type: binding
T1 construct: 10 nM full-length beta-Catenin (Uniprot ID P35222)
T1 sequence (P35222 1-781): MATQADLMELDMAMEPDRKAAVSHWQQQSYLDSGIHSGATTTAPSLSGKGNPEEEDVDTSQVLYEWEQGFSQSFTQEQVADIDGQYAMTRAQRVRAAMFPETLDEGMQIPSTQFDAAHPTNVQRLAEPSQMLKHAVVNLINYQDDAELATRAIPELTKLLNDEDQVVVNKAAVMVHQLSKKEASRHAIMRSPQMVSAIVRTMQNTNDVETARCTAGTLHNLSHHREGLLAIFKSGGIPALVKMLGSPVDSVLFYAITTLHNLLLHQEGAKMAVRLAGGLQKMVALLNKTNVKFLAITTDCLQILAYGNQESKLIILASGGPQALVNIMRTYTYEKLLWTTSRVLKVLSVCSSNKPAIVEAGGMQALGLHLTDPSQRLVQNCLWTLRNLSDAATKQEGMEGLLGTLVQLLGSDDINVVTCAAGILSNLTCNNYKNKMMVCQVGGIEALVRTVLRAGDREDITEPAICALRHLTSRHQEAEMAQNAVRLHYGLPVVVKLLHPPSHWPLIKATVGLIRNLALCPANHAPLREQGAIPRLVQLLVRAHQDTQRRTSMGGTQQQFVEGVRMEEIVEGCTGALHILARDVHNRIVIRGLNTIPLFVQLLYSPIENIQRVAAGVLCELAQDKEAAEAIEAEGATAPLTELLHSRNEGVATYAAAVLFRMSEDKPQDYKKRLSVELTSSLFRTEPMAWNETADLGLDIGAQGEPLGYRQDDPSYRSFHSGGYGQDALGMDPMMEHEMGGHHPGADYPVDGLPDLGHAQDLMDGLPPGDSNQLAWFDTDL

[2] = fluorescence polarization, read-out: beta-Catenin FP IC50

Solubility (Solubility in PBS) [µM]	CHI Log D (CHI Log D procedure)	IC50 [1, 2] [nM]	IC50 ([1]; read-out: FP EC50) [nM]	chromatographic logD (CHI Log D procedure)	Solubility (Solubility in PBS; Solubility (uM)) [µM]	SMILES
48 (≈ 89.1 µg/mL)	2.512	118	118	–	–	CC[C@H](C)[C@@H]1NC(=O)[C@H](CC(=O)O)NC(=O)[C@]2(CC=CCCCC3(CCCC=CCCCCCC[C@@](C)(C(=O)N[C@@H](Cc4ccccc4)C(=O)N[C@@H](Cc4csc5ccccc45)C(=O)N[C@H](C(N)=O)[C@@H](C)O)NC(=O)[C@H](CCC(N)=O)NC(=O)[C@H](Cc4ccccc4)NC(=O)[C@H](C)NC(=O)[C@H](C)NC(=O)[C@H](CCC(=O)O)NC(=O)[C@H](CC(=O)O)NC3=O)NC1=O)CCCN2C(C)=O (stereo partly drawn) [I-642, Ac-PL3-Asp-Ile-B5-Asp-Glu-Ala-Ala-Phe-Gln-S8-Phe-BztA-Thr-NH2]
28 (≈ 54.4 µg/mL)	2.833	958	958	–	–	CC[C@H](C)[C@@H]1NC(=O)[C@H](CC(=O)O)NC(=O)[C@]2(CC=CCCCC3(CCCC=CCCCCCC[C@@](C)(C(=O)N[C@@H](Cc4ccccc4)C(=O)N[C@@H](Cc4csc5ccccc45)C(=O)N[C@@H](Cc4c[nH]c5ccccc45)C(N)=O)NC(=O)[C@H](CCC(N)=O)NC(=O)[C@H](Cc4ccccc4)NC(=O)[C@H](C)NC(=O)[C@H](C)NC(=O)[C@H](CCC(=O)O)NC(=O)[C@H](CC(=O)O)NC3=O)NC1=O)CCCN2C(C)=O (stereo partly drawn) [I-643, Ac-PL3-Asp-Ile-B5-Asp-Glu-Ala-Ala-Phe-Gln-S8-Phe-BztA-Trp-NH2]
22 (≈ 42.7 µg/mL)	2.837	808	808	–	–	CC[C@H](C)[C@@H]1NC(=O)[C@H](CC(=O)O)NC(=O)[C@]2(CC=CCCCC3(CCCC=CCCCCCC[C@@](C)(C(=O)N[C@@H](Cc4ccccc4)C(=O)N[C@@H](Cc4csc5ccccc45)C(=O)N[C@@H](Cc4c[nH]c5ccccc45)C(N)=O)NC(=O)[C@H](CCC(N)=O)NC(=O)[C@H](Cc4ccccc4)NC(=O)[C@H](C)NC(=O)[C@H](C)NC(=O)[C@H](CCC(=O)O)NC(=O)[C@H](CC(=O)O)NC3=O)NC1=O)CCCN2C(C)=O (stereo partly drawn) [I-644, Ac-PL3-Asp-Ile-B5-Asp-Glu-Ala-Ala-Phe-Gln-S8-Phe-BztA-Trp-NH2]
40 (≈ 74.2 µg/mL)	2.677	395	395	–	–	CC[C@H](C)[C@@H]1NC(=O)[C@H](CC(=O)O)NC(=O)[C@]2(CC=CCCCC3(CCCC=CCCCCCC[C@@](C)(C(=O)N[C@@H](Cc4ccccc4)C(=O)N[C@@H](Cc4csc5ccccc45)C(=O)N[C@H](C(N)=O)C(C)C)NC(=O)[C@H](CCC(N)=O)NC(=O)[C@H](Cc4ccccc4)NC(=O)[C@H](C)NC(=O)[C@H](C)NC(=O)[C@H](CCC(=O)O)NC(=O)[C@H](CC(=O)O)NC3=O)NC1=O)CCCN2C(C)=O (stereo partly drawn) [I-645, Ac-PL3-Asp-Ile-B5-Asp-Glu-Ala-Ala-Phe-Gln-S8-Phe-BztA-Val-NH2]

Continued, molecule first:

SMILES	Solubility (Solubility in PBS) [µM]	CHI Log D (CHI Log D procedure)	IC50 [1, 2] [nM]	IC50 ([1]; read-out: FP EC50) [nM]	chromatographic logD (CHI Log D procedure)	Solubility (Solubility in PBS; Solubility (uM)) [µM]
CC(=O)N1CCC[C@]12CC=CCCCC1(CCCC=CCCCCCC[C@@](C)(C(=O)N[C@@H](Cc3ccccc3)C(=O)N[C@@H](Cc3csc4ccccc34)C(N)=O)NC(=O)[C@H](CCCNC(N)=O)NC(=O)[C@H](Cc3ccccc3)NC(=O)[C@H](C)NC(=O)[C@H](C)NC(=O)[C@H](CCC(=O)O)NC(=O)[C@H](CC(=O)O)NC1=O)NC(=O)[C@H](CC(C)C)NC(=O)[C@H](CC(=O)O)NC2=O (stereo partly drawn) [I-628, Ac-PL3-Asp-Leu-B5-Asp-Glu-Ala-Ala-Phe-Cit-S8-Phe-BztA-NH2]	47 (≈ 83.9 µg/mL)	3.103	60	713	–	–
CC[C@H](C)[C@@H]1NC(=O)[C@H](CC(=O)O)NC(=O)[C@]2(CC=CCCCC3(CCCC=CCCCCCC[C@@](C)(C(=O)N[C@@H](Cc4ccccc4)C(=O)N[C@@H](Cc4csc5ccccc45)C(=O)N[C@@H](CCCNC(=N)N)C(N)=O)NC(=O)[C@H](CCC(N)=O)NC(=O)[C@H](Cc4ccccc4)NC(=O)[C@H](C)NC(=O)[C@H](C)NC(=O)[C@H](CCC(=O)O)NC(=O)[C@H](CC(=O)O)NC3=O)NC1=O)CCCN2C(C)=O (stereo partly drawn) [I-633, Ac-PL3-Asp-Ile-B5-Asp-Glu-Ala-Ala-Phe-Gln-S8-Phe-BztA-Arg-NH2]	10 (≈ 19.1 µg/mL)	–	88	–	2.62	–
CC[C@H](C)[C@@H]1NC(=O)[C@H](CC(=O)O)NC(=O)[C@]2(CC=CCCCC3(CCCC=CCCCCCC[C@@](C)(C(=O)N[C@@H](Cc4ccccc4)C(=O)N[C@@H](Cc4csc5ccccc45)C(=O)N[C@@H](CC(C)C)C(N)=O)NC(=O)[C@H](CCC(N)=O)NC(=O)[C@H](Cc4ccccc4)NC(=O)[C@H](C)NC(=O)[C@H](C)NC(=O)[C@H](CCC(=O)O)NC(=O)[C@H](CC(=O)O)NC3=O)NC1=O)CCCN2C(C)=O (stereo partly drawn) [I-634, Ac-PL3-Asp-Ile-B5-Asp-Glu-Ala-Ala-Phe-Gln-S8-Phe-BztA-Leu-NH2]	–	–	425	–	2.76	49 (≈ 91.5 µg/mL)
CC[C@H](C)[C@@H]1NC(=O)[C@H](CC(=O)O)NC(=O)[C@]2(CC=CCCCC3(CCCC=CCCCCCC[C@@](C)(C(=O)N[C@@H](Cc4ccccc4)C(=O)N[C@@H](Cc4csc5ccccc45)C(=O)N[C@@H](Cc4ccccc4)C(N)=O)NC(=O)[C@H](CCC(N)=O)NC(=O)[C@H](Cc4ccccc4)NC(=O)[C@H](C)NC(=O)[C@H](C)NC(=O)[C@H](CCC(=O)O)NC(=O)[C@H](CC(=O)O)NC3=O)NC1=O)CCCN2C(C)=O (stereo partly drawn) [I-635, Ac-PL3-Asp-Ile-B5-Asp-Glu-Ala-Ala-Phe-Gln-S8-Phe-BztA-Phe-NH2]	–	–	171	–	2.73	43 (≈ 81.8 µg/mL)
CC[C@H](C)[C@@H]1NC(=O)[C@H](CC(=O)O)NC(=O)[C@]2(CC=CCCCC3(CCCC=CCCCCCC[C@@](C)(C(=O)N[C@@H](Cc4ccccc4)C(=O)N[C@@H](Cc4csc5ccccc45)C(=O)N[C@@H](Cc4ccc(O)cc4)C(N)=O)NC(=O)[C@H](CCC(N)=O)NC(=O)[C@H](Cc4ccccc4)NC(=O)[C@H](C)NC(=O)[C@H](C)NC(=O)[C@H](CCC(=O)O)NC(=O)[C@H](CC(=O)O)NC3=O)NC1=O)CCCN2C(C)=O (stereo partly drawn) [I-636, Ac-PL3-Asp-Ile-B5-Asp-Glu-Ala-Ala-Phe-Gln-S8-Phe-BztA-Tyr-NH2]	50 (≈ 95.9 µg/mL)	–	198	–	2.57	–
CC[C@H](C)[C@@H]1NC(=O)[C@H](CC(=O)O)NC(=O)[C@]2(CC=CCCCC3(CCCC=CCCCCCC[C@@](C)(C(=O)N[C@@H](Cc4ccccc4)C(=O)N[C@@H](Cc4csc5ccccc45)C(=O)N4CCC[C@H]4C(N)=O)NC(=O)[C@H](CCC(N)=O)NC(=O)[C@H](Cc4ccccc4)NC(=O)[C@H](C)NC(=O)[C@H](C)NC(=O)[C@H](CCC(=O)O)NC(=O)[C@H](CC(=O)O)NC3=O)NC1=O)CCCN2C(C)=O (stereo partly drawn) [I-638, Ac-PL3-Asp-Ile-B5-Asp-Glu-Ala-Ala-Phe-Gln-S8-Phe-BztA-Pro-NH2]	48 (≈ 88.9 µg/mL)	2.622	3880	3880	–	–
CC[C@H](C)[C@@H]1NC(=O)[C@H](CC(=O)O)NC(=O)[C@]2(CC=CCCCC3(CCCC=CCCCCCC[C@@](C)(C(=O)N[C@@H](Cc4ccccc4)C(=O)N[C@@H](Cc4csc5ccccc45)C(=O)N[C@@H](CO)C(N)=O)NC(=O)[C@H](CCC(N)=O)NC(=O)[C@H](Cc4ccccc4)NC(=O)[C@H](C)NC(=O)[C@H](C)NC(=O)[C@H](CCC(=O)O)NC(=O)[C@H](CC(=O)O)NC3=O)NC1=O)CCCN2C(C)=O (stereo partly drawn) [I-639, Ac-PL3-Asp-Ile-B5-Asp-Glu-Ala-Ala-Phe-Gln-S8-Phe-BztA-Ser-NH2]	44 (≈ 81.1 µg/mL)	2.49	109	109	–	–
CC[C@H](C)[C@@H]1NC(=O)[C@H](CC(=O)O)NC(=O)[C@]2(CC=CCCCC3(CCCC=CCCCCCC[C@@](C)(C(=O)N[C@@H](Cc4ccccc4)C(=O)N[C@@H](Cc4csc5ccccc45)C(=O)N[C@@H](CO)C(N)=O)NC(=O)[C@H](CCC(N)=O)NC(=O)[C@H](Cc4ccccc4)NC(=O)[C@H](C)NC(=O)[C@H](C)NC(=O)[C@H](CCC(=O)O)NC(=O)[C@H](CC(=O)O)NC3=O)NC1=O)CCCN2C(C)=O (stereo partly drawn) [I-640, Ac-PL3-Asp-Ile-B5-Asp-Glu-Ala-Ala-Phe-Gln-S8-Phe-BztA-Ser-NH2]	50 (≈ 92.1 µg/mL)	2.516	87	87	–	–
CC[C@H](C)[C@@H]1NC(=O)[C@H](CC(=O)O)NC(=O)[C@]2(CC=CCCCC3(CCCC=CCCCCCC[C@@](C)(C(=O)N[C@@H](Cc4ccccc4)C(=O)N[C@@H](Cc4csc5ccccc45)C(=O)N[C@H](C(N)=O)[C@@H](C)O)NC(=O)[C@H](CCC(N)=O)NC(=O)[C@H](Cc4ccccc4)NC(=O)[C@H](C)NC(=O)[C@H](C)NC(=O)[C@H](CCC(=O)O)NC(=O)[C@H](CC(=O)O)NC3=O)NC1=O)CCCN2C(C)=O (stereo partly drawn) [I-641, Ac-PL3-Asp-Ile-B5-Asp-Glu-Ala-Ala-Phe-Gln-S8-Phe-BztA-Thr-NH2]	43 (≈ 79.8 µg/mL)	2.497	122	122	–	–
